# Target: T1, ΔF508-CFTR (Homo sapiens, UniProt P13569, DEL508-508)
# T1 construct: expressed in transfected cells; host or cells: CFSMEo- (human CF submucosal gland epithelial cells, ΔF508/Q2X), transiently transfected by nucleofection
# Test: ΔF508-CFTR-HRP trafficking assay (cell surface expression of ΔF508-CFTR)
# Format: cell-based
# Settings: CFSMEo- cells transiently transfected with ΔF508-CFTR-HRP; test agent 3 μM, 48 h; HRP chemiluminescence
# How it was run: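 Surface-expressed ΔF508-CFTR measured via extracellular HRP tag: cell-impermeable chemiluminescent substrate, 5 min, signal normalized to 0.3% DMSO vehicle.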
# T1 sequence (P13569 with tags, fused parts or gaps DEL508-508): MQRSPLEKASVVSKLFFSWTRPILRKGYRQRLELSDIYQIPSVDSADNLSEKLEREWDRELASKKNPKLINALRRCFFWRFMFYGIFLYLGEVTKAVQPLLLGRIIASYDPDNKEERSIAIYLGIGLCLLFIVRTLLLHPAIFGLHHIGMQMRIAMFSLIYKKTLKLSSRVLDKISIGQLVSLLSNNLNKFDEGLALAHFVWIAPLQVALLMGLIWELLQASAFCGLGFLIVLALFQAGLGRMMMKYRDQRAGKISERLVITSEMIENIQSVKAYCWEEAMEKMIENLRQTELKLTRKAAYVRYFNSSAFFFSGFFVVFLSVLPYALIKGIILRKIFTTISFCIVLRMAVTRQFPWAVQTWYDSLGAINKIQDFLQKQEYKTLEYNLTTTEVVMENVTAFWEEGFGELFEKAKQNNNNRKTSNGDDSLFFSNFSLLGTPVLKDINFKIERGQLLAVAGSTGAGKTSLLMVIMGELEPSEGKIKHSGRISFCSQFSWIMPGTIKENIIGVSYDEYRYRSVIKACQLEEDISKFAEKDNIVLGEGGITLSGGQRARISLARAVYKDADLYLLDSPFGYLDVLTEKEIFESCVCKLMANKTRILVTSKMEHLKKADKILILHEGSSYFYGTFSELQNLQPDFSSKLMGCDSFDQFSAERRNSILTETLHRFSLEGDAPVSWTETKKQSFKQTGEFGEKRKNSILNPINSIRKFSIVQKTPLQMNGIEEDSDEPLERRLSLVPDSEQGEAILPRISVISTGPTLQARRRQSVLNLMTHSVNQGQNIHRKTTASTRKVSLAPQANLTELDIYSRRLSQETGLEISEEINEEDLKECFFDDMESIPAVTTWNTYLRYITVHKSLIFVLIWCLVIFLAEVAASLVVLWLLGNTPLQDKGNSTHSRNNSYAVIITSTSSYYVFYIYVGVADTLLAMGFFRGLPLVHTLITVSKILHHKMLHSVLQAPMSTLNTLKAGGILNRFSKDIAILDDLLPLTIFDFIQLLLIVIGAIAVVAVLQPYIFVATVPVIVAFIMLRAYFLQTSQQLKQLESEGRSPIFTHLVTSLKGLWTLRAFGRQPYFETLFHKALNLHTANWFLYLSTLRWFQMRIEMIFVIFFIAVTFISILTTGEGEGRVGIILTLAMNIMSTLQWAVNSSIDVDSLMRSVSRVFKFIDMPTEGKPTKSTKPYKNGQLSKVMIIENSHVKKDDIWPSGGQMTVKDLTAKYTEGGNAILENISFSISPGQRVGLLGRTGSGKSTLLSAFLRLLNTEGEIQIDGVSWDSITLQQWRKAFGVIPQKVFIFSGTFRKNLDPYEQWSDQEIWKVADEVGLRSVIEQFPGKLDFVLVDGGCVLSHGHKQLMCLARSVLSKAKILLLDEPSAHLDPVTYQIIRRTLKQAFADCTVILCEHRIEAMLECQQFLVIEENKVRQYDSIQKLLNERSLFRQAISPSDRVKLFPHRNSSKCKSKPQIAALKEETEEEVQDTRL
row,SMILES,RLUs: ΔF508-CFTR-HRP trafficking data normalized to the vehicle treated control (0.3% DMSO)
1,"C[C@H](Oc1cccc(-n2nc(C(F)(F)F)c3c2C(S(=O)(=O)c2ccc(C(=O)O)cc2)CCC3)c1)c1ccc2c(c1)OC(F)(F)O2 (stereo partly drawn) [Example 71, 4-[[1-[3-[(1S)-1-(2,2-difluoro-1,3-benzodioxol-5-yl)ethoxy]phenyl]-3-(trifluoromethyl)-4,5,6,7-tetrahydroindazol-7-yl]sulfonyl]benzoic acid]",C (RLU 0.0 μM-3.5 μM)
2,"C[C@H](Oc1cccc(-n2nc(C(F)(F)F)c3c2C(OC24CC(C(=O)O)(C2)C4)CCC3)c1)c1ccc2c(c1)OC(F)(F)O2 (single isomer, unassigned) [Example 42]",A (RLU 5.0 μM-10 μM)
3,"C[C@H](Oc1cc(-n2nc(C(F)(F)F)c3c2[C@H](OC24CC(c5nc(=O)o[nH]5)(C2)C4)CCC3)ccc1F)c1ccc2c(c1)OC(F)(F)O2 (single isomer, unassigned) [85 (P2)]",B (RLU 3.5 μM-5.0 μM)
4,"Cc1cc(OC2CCCc3c(C(F)(F)F)nn(-c4cccc(O[C@H](C)c5cc6c(cc5F)OC(F)(F)O6)c4)c32)ccc1C(=O)O (single isomer, unassigned) [Example 34]",B (RLU 3.5 μM-5.0 μM)
5,"C[C@H](Oc1cnnc(-n2nc(C(F)(F)F)c3c2[C@@H](Oc2ccc(C(=O)O)cc2)CCC3)c1)c1ccc2c(c1)OC(F)(F)O2 (single isomer, unassigned) [Example 36h]",B (RLU 3.5 μM-5.0 μM)
6,"C[C@H](Nc1cccc(-n2nc(C(F)(F)F)c3c2[C@@H](OC24CC(C(=O)O)(C2)C4)CCC3)c1)c1cc2c(cc1F)OC(F)(F)O2 (single isomer, unassigned) [97 (P1)]",C (RLU 0.0 μM-3.5 μM)
7,"C[C@H](Nc1ccc(F)c(-n2nc(C(F)(F)F)c3c2[C@H](OC24CC(C(=O)O)(C2)C4)CCC3)c1)c1ccc2c(c1)OC(F)(F)O2 (single isomer, unassigned) [99 (P2)]",C (RLU 0.0 μM-3.5 μM)
8,"C[C@H](Nc1cc(-n2nc(C(F)(F)F)c3c2[C@H](OC24CC(C(=O)O)(C2)C4)CCC3)ccc1F)c1ccc2c(c1)OC(F)(F)O2 (single isomer, unassigned) [95 (P2)]",C (RLU 0.0 μM-3.5 μM)
9,"C[C@H](Oc1cc(-n2nc(C(F)(F)F)c3c2[C@@H](OC[C@H]2CC[C@H](C(=O)O)CC2)CCC3)cnc1F)c1ccc2c(c1)OC(F)(F)O2 (single isomer, unassigned) [82 (P1)]",B (RLU 3.5 μM-5.0 μM)
10,C[C@H](Oc1cccc(-n2nc(C(F)(F)F)c3c2C(Oc2ccc(C(=O)O)cc2)CCC3)c1)c1cc2c(cn1)OC(F)(F)O2 (stereo partly drawn) [Example 31],C (RLU 0.0 μM-3.5 μM)
11,"C[C@H](Oc1cncc(-n2nc(C(F)(F)F)c3c2[C@@H](C(=O)N2CCC(C(=O)O)CC2)CCC3)c1)c1ccc2c(c1)OC(F)(F)O2 (single isomer, unassigned) [122 (P1)]",C (RLU 0.0 μM-3.5 μM)
12,"C[C@H](Oc1cc(-n2nc(C(F)(F)F)c3c2[C@H](OC24CC(C(=O)O)(C2)C4)CCC3)ccc1F)c1ccc2c(c1)OC(F)(F)O2 (single isomer, unassigned) [76 (P2)]",C (RLU 0.0 μM-3.5 μM)
13,"C[C@H](Nc1ccc(F)c(-n2nc(C(F)(F)F)c3c2[C@@H](OC24CC(C(=O)O)(C2)C4)CCC3)c1)c1ccc2c(c1)OC(F)(F)O2 (single isomer, unassigned) [99 (P1)]",C (RLU 0.0 μM-3.5 μM)
14,"C[C@H](Oc1cc(-n2nc(C(F)(F)F)c3c2[C@@H](OC24CCC(C(=O)O)(CC2)CC4)CCC3)cc(F)n1)c1ccc2c(c1)OC(F)(F)O2 (single isomer, unassigned) [81 (P2)]",C (RLU 0.0 μM-3.5 μM)
15,"C[C@H](Nc1ccc(F)c(-n2nc(C(F)(F)F)c3c2[C@@H](OC24CC(C(=O)O)(C2)C4)CCC3)c1)c1cc2c(cc1F)OC(F)(F)O2 (single isomer, unassigned) [98 (P1)]",C (RLU 0.0 μM-3.5 μM)
16,"O=C(O)c1ccc(O[C@H]2CCCc3c(C(F)(F)F)nn(-c4ccnc(N[C@H](c5ccc6c(c5)OC(F)(F)O6)C5CC5)c4)c32)cc1 (single isomer, unassigned) [Example 90]",C (RLU 0.0 μM-3.5 μM)
17,"C[C@H](Oc1cc(-n2nc(C(F)(F)F)c3c2[C@@H](Nc2ccc(C(=O)O)cc2)CCC3)ccn1)c1ccc2c(c1)OC(F)(F)O2 (single isomer, unassigned) [Example 109]",A (RLU 5.0 μM-10 μM)

row,SMILES,RLUs: ΔF508-CFTR-HRP trafficking data normalized to the vehicle treated control (0.3% DMSO)
1,C[C@@H](Oc1cccc(-n2nc(C(F)(F)F)c3c2C(Oc2ccc(C(=O)O)cc2)CCC3)c1)c1cc2c(cn1)OC(F)(F)O2 (stereo partly drawn) [Example 30],B (RLU 3.5 μM-5.0 μM)
2,C[C@H](Oc1cccc(-n2nc(C(F)(F)F)c3c2C(O[C@H]2CC[C@H](C(=O)O)CC2)CCC3)c1)c1ccc2c(c1)OC(F)(F)O2 (relative stereo) [Example 37],A (RLU 5.0 μM-10 μM)
3,"C[C@H](Oc1cncc(-n2nc(C(F)(F)F)c3c2[C@@H](OC24CC(C(=O)O)(C2)C4)CCC3)c1)c1cc2c(cc1F)OC(F)(F)O2 (single isomer, unassigned) [74 (P1)]",A (RLU 5.0 μM-10 μM)
4,"C[C@H](Oc1cc(-n2nc(C(F)(F)F)c3c2[C@@H](Oc2ccc(C(=O)O)cc2)CCC3)ccn1)c1cc2c(cc1F)OC(F)(F)O2 (single isomer, unassigned) [Example 36a]",A (RLU 5.0 μM-10 μM)
5,"C[C@H](Nc1cc(-c2nn(CC(F)(F)F)c3c2[C@@H](Oc2ccc(C(=O)O)cc2)CCC3)ccn1)c1ccc2c(c1)OC(F)(F)O2 (single isomer, unassigned) [Example 129]",B (RLU 3.5 μM-5.0 μM)
6,"C[C@H](Oc1cccc(-n2nc(C(F)(F)F)c3c2[C@@H](Oc2ccc(C(=O)O)cc2)CCC3)n1)c1ccc2c(c1)OC(F)(F)O2 (single isomer, unassigned) [Example 36c]",B (RLU 3.5 μM-5.0 μM)
7,"C[C@H](Oc1cccc(-n2nc(C(F)(F)F)c3c2[C@@H](Oc2ccc(C(=O)O)cc2)CCC3)c1)c1cc2c(cc1F)OC(F)(F)O2 (single isomer, unassigned) [Example 36g]",B (RLU 3.5 μM-5.0 μM)
8,"C[C@H](Oc1cccc(-n2nc(C(F)(F)F)c3c2[C@@H](C(=O)N2CCC(C(=O)O)CC2)CCC3)c1)c1ccc2c(c1)OC(F)(F)O2 (single isomer, unassigned) [120 (P1)]",B (RLU 3.5 μM-5.0 μM)
9,"C[C@H](Nc1cccc(-n2nc(C(F)(F)F)c3c2[C@H](OC24CC(C(=O)O)(C2)C4)CCC3)n1)c1ccc2c(c1)OC(F)(F)O2 (single isomer, unassigned) [100 (P2)]",C (RLU 0.0 μM-3.5 μM)
10,"C[C@H](Oc1cc(-n2nc(C(F)(F)F)c3c2[C@@H](O[C@H]2CC[C@H](C(=O)O)CC2)CCC3)cc(F)n1)c1ccc2c(c1)OC(F)(F)O2 (single isomer, unassigned) [80 (P1)]",A (RLU 5.0 μM-10 μM)
11,"C[C@H](Nc1cc(-n2nc(C(F)(F)F)c3c2[C@H](OC24CC(C(=O)O)(C2)C4)CCC3)ccc1F)c1cc2c(cc1F)OC(F)(F)O2 (single isomer, unassigned) [96 (P2)]",C (RLU 0.0 μM-3.5 μM)
12,"C[C@H](Oc1cc(-n2nc(C(F)(F)F)c3c2C(O[C@H]2CC[C@H](C(=O)O)CC2)CCC3)cnc1F)c1ccc2c(c1)OC(F)(F)O2 (stereo in doubt) [79 (P2), 4-[[(7R)-1-[5-[(1S)-1-(2,2-difluoro-1,3-benzodioxol-5-yl)ethoxy]-6-fluoro-3-pyridyl]-3-(trifluoromethyl)-4,5,6,7-tetrahydroindazol-7-yl]oxy]cyclohexanecarboxylic acid]",A (RLU 5.0 μM-10 μM)
13,"C[C@H](Oc1cc(-n2nc(C(F)(F)F)c3c2N(CC24CC(C(=O)O)(C2)C4)CCC3)cnn1)c1ccc2c(c1)OC(F)(F)O2 (single isomer, unassigned) [Example 6]",C (RLU 0.0 μM-3.5 μM)
14,"C[C@H](Oc1cccc(-n2nc(C(F)(F)F)c3c2[C@@H](Oc2ccc(C(=O)O)cc2)CCC3)n1)c1cc2c(cc1F)OC(F)(F)O2 (single isomer, unassigned) [Example 36l]",A (RLU 5.0 μM-10 μM)
15,"C[C@H](Oc1cc(-n2nc(C(F)(F)F)c3c2[C@@H](O[C@H]2CC[C@H](C(=O)O)CC2)CCC3)cnn1)c1ccc2c(c1)OC(F)(F)O2 (single isomer, unassigned) [Example 55]",C (RLU 0.0 μM-3.5 μM)
16,C[C@@H](Oc1cc(-n2nc(C(F)(F)F)c3c2C(OC24CC(C(=O)O)(C2)C4)CCC3)ccn1)c1ccc2c(c1)OC(F)(F)O2 (stereo partly drawn) [Example 40],A (RLU 5.0 μM-10 μM)
